We go through six molecules from patent US20080153888A1, “ALPHA-2-DELTA LIGAND/NSAID THERAPEUTIC TREATMENT OF LOWER URINARY TRACT DISORDERS” (Recordati Ireland Limited, priority 2006, published 2008).

Structures are written as SMILES. Bounds are passed on as bounds.

In the assay the test system is anesthetized rats with acetic acid bladder infusion (animal model of overactive bladder). The assay is described as follows: Cystometry in anesthetized rats with acetic acid bladder infusion.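 On all read-outs here: Single-filling cystometrograms via bladder-dome catheter, basal values taken after 60 min saline infusion, BVC as mL infused until micturition, MP as peak intravesical pressure (mm Hg).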 It is filed as in vivo, rat. The note with it: for % Bladder Volume Capacity (vs basal) ± S.E. / ED60 (CL 95%) of recovery of Bladder Volume Capacity to basal value: single drug; for % Bladder Volume Capacity (vs basal) ± S.E.: cumulative administration; for ED60 (CL 95%) of recovery of Bladder Volume Capacity to basal value: i.v., cumulative dose-response.

Procedure: Female rats (225-250 g body weight) were anesthetized with urethane (1.25 g/kg s.c.) and a catheter (PE-50, 0.58 mm I.D.×0.96 mm O.D.) was inserted into the jugular vein for intravenous drug administration. A midline lower abdominal incision was made and a second PE-50 catheter was inserted into the bladder dome for bladder filling and pressure recording, and the incision was sutured.
Dosages were administered by injection in a volume of 1 ml per kg body weight.
a) Saline was continuously infused at a rate of 0.055 ml/min by mean of a peristaltic pump via the bladder-filling catheter for 60 minutes to obtain a baseline of bladder activity. Then the infusion pump was stopped and the bladder was emptied of residual fluid by capillarity via the infusion catheter. After this procedure, a single filling cystometrogram was performed in order to determine the two urodynamic parameters: bladder volume capacity (BVC) and micturition pressure (MP) (BVC and MP BASAL VALUES).
After 30 minutes of acetic acid infusion, 3 vehicle injections were made at 20 minute intervals. Then the infusion pump was stopped, the bladder was emptied and a single filling cystometrogram was recorded as reported before (BVC and MP VALUES AFTER IRRITATION).
This procedure was repeated for three times in order to follow a cumulative dose-response protocol.
BVC is defined as the volume (mL) of fluid (saline or dilute acetic acid) infused in the bladder necessary to induce detrusor contractions followed by micturition. MP is defined as the maximal intravesical pressure (mm Hg) determined by the contraction of the detrusor during micturition.
Changes in bladder capacity for each animal were expressed as “% bladder volume capacity vs. basal (saline infusion)” and an increase in this index was used as measure of efficacy (recovery from irritation to basal value).

As to `O=C(O)Cc1ccccc1Nc1c(Cl)cccc1Cl` [Diclofenac, diclofenac], the “ED60 (CL 95%) of recovery of Bladder Volume Capacity to basal value” (shortened to “ED60 (CL 95%)”) was 0.85 (0.80-0.90). Moreover, the “% Bladder Volume Capacity (vs basal) ± S.E.” value (“% Bladder Volume Capacity” for short) (dose 0.3 mg/kg i.v.) is given as 41 ± 10%. For the same molecule, where the note is “dose 1.0 mg/kg i.v.”, the “% Bladder Volume Capacity” value is listed as 63 ± 13%. Moreover, the “% Bladder Volume Capacity” value (dose 3 mg/kg i.v.) was found to be 82 ± 15%.

As to `CC(C(=O)O)c1ccc(-c2ccccc2)c(F)c1` (stereo not shown) [Flurbiprofen, flurbiprofen], the “ED60 (CL 95%)” value is reported as 2.34 (nc-4.77). The “% Bladder Volume Capacity” value (dose 0.1 mg/kg i.v.) is 43 ± 11%. For the same molecule, the “% Bladder Volume Capacity” value (dose 0.3 mg/kg i.v.) is 42 ± 6%. Also, the “% Bladder Volume Capacity” value (dose 1.0 mg/kg i.v.) was 49 ± 9%. For the same molecule, the “% Bladder Volume Capacity” value (dose 3 mg/kg i.v., 3 mg/kg) came to 62 ± 10%. Also, the “% Bladder Volume Capacity” value (dose 10 mg/kg i.v.) is recorded as 73 ± 12%.

`NCC1(CC(=O)O)CCCCC1` [Gabapentin]: the “ED60 (CL 95%)” value was 112 (75-149). The “% Bladder Volume Capacity” value (dose 30 mg/kg i.v.) is 27 ± 4%. For the same molecule, the “% Bladder Volume Capacity” value (dose 60 mg/kg i.v.) was 51 ± 15%. Also, under “dose 100 mg/kg i.v.”, the “% Bladder Volume Capacity” value is given as 55 ± 9%. In addition, the “% Bladder Volume Capacity” value (dose 300 mg/kg i.v.) came out at 82 ± 12%.

Take `CS(=O)(=O)Nc1ccc([N+](=O)[O-])cc1Oc1ccccc1` [Nimesulide]: the “ED60 (CL 95%)” value is reported as >>10. In addition, the “% Bladder Volume Capacity” value (dose 0.3 mg/kg i.v.) is on record as 38 ± 10%. Further, the “% Bladder Volume Capacity” value (dose 1.0 mg/kg i.v.) stood at 36 ± 12%. For the same molecule, the “% Bladder Volume Capacity” value (dose 3 mg/kg i.v.) came out at 37 ± 7%. For the same molecule, the “% Bladder Volume Capacity” value (dose 10 mg/kg i.v.) was found to be 47 ± 15%.

Consider `CC(C)C[C@H](CN)CC(=O)O` [Pregabalin, pregabalin], for which the “ED60 (CL 95%)” value is recorded as 300.5 (n.c.-n.c.). Further, the “micturition pressure (MP)” value (after increase of MP induced by acetic acid infusion, data not shown) was “recovered to basal values”. Moreover, the “% Bladder Volume Capacity” value (dose 10 mg/kg i.v.) is 31 ± 6%. The “% Bladder Volume Capacity” value (dose 30 mg/kg i.v.) stood at 35 ± 6%. For the same molecule, the “% Bladder Volume Capacity” value (dose 100 mg/kg i.v.) was 52 ± 8%.

Turning to `CC1=C(CC(=O)O)c2cc(F)ccc2/C1=C\c1ccc([S+](C)[O-])cc1` (stereo not shown) [Sulindac, sulindac], the “ED60 (CL 95%)” value was greater than 30. Further, for the setting “dose 0.3 mg/kg i.v.”, the “% Bladder Volume Capacity” value is given as 27 ± 5%. In addition, the “% Bladder Volume Capacity” value (dose 1.0 mg/kg i.v.) came out at 39 ± 11%. Moreover, the “% Bladder Volume Capacity” value (dose 3 mg/kg i.v.) is recorded as 34 ± 8%. For the same molecule, the “% Bladder Volume Capacity” value (dose 10 mg/kg i.v.) came to 38 ± 4%. For the setting “dose 30 mg/kg i.v.”, the “% Bladder Volume Capacity” value is 54 ± 8%.
